Source: the kinase profiling compilation of Christmann-Franck et al. (2016)

Assays:
Test in all cases: radiometric filter-binding kinase assay, Kinaseprofiler
STK24 (human) = STK24 (human) (UniProt Q9Y6E0); details: compound 1.0 µM; ATP 15 µM
HCK (human) = HCK (human) (UniProt P08631); details: compound 1.0 µM; ATP 70 µM
NEK3 (human) = NEK3 (human) (UniProt P51956); details: compound 1.0 µM; ATP 120 µM
MELK (human) = MELK (human) (UniProt Q14680); details: compound 1.0 µM; ATP 45 µM
TSSK1B (human) = TSSK1B (human) (UniProt Q9BXA7); details: compound 1.0 µM; ATP 15 µM
EPHA8 (human) = EPHA8 (human) (UniProt P29322); details: compound 1.0 µM; ATP 200 µM
Sequence of EPHA8 (human) (P29322 whole entry, looked up): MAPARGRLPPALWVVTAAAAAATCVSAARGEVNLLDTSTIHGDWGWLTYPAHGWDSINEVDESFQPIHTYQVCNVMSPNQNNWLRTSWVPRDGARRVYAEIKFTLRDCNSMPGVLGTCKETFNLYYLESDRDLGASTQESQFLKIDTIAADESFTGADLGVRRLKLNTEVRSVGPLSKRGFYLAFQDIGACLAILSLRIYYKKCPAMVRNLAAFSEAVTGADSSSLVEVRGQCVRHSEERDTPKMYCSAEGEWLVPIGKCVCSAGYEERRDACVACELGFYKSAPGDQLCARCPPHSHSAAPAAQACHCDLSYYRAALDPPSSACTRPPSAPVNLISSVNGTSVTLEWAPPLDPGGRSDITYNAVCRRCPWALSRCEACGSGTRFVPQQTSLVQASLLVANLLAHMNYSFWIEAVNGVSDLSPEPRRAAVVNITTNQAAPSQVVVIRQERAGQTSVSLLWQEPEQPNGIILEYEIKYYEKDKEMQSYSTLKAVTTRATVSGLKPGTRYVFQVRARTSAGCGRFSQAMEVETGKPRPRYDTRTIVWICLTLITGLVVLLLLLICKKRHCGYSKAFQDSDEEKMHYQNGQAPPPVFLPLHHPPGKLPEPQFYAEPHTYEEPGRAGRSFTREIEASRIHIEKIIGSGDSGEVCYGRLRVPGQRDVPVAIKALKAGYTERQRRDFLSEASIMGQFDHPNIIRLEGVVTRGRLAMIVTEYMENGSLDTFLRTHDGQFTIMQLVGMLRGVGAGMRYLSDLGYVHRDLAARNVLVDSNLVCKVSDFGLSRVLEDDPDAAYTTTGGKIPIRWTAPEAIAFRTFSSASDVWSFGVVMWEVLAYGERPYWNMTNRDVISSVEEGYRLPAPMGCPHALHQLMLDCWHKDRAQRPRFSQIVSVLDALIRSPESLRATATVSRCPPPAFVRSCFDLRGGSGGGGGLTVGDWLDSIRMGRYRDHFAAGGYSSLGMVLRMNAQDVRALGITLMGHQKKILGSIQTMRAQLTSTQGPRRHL

FGFR4 (human) = FGFR4 (human) (UniProt P22455); details: compound 1.0 µM; ATP 155 µM
[1] = test system: GSK3B (human), P49841 [H350L]; details: compound 1.0 µM; ATP 15 µM
DAPK3 (human) = DAPK3 (human) (UniProt O43293); details: compound 1.0 µM; ATP 15 µM
[2] = test system: PAK2 (human), Q13177 [L150F, P225T, V383I; A339 del]; details: compound 1.0 µM; ATP 90 µM
Sequence of PAK2 (human), Q13177 [L150F, P225T, V383I; A339 del] (Q13177 whole entry, looked up, stated change not applied): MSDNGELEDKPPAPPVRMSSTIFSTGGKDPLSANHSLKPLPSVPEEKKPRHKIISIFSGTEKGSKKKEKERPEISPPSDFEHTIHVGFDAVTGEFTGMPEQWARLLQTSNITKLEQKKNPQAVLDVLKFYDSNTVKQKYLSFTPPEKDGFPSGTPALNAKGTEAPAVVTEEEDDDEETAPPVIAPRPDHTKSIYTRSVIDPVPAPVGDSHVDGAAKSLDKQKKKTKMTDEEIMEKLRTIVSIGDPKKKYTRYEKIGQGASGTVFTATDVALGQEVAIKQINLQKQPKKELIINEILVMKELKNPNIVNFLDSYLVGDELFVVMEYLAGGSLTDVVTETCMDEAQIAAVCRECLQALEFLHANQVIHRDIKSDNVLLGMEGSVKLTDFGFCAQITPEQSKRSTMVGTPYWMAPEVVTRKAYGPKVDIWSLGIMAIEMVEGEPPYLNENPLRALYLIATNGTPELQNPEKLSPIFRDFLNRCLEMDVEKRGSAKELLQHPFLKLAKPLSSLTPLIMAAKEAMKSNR

PRKCQ (human) = PRKCQ (human) (UniProt Q04759); details: compound 1.0 µM; ATP 15 µM
PLK3 (human) = PLK3 (human) (UniProt Q9H4B4); details: compound 1.0 µM; ATP 70 µM
TBK1 (human) = TBK1 (human) (UniProt Q9UHD2); details: compound 1.0 µM; ATP 155 µM
MKNK2 (human) = MKNK2 (human) (UniProt Q9HBH9); details: compound 1.0 µM; ATP 120 µM
CDC42BPB (human) = CDC42BPB (human) (UniProt Q9Y5S2); details: compound 1.0 µM; ATP 10 µM
RIPK2 (human) = RIPK2 (human) (UniProt O43353); details: compound 1.0 µM; ATP 120 µM
Sequence of RIPK2 (human) (O43353 whole entry, looked up): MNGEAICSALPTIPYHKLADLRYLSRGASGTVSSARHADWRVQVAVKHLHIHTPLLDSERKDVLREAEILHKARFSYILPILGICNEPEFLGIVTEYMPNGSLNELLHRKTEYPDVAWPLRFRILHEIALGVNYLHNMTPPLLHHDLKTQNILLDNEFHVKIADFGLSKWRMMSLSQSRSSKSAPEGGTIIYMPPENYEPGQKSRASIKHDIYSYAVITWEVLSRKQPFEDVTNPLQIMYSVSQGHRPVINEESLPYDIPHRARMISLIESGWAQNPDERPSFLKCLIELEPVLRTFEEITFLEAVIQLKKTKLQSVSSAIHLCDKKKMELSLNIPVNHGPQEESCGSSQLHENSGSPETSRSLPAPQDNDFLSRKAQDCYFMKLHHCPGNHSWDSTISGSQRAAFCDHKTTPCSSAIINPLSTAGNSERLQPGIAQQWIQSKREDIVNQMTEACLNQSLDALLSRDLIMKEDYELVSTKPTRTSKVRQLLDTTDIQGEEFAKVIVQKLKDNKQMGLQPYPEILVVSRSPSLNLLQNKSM

SRPK2 (human) = SRPK2 (human) (UniProt P78362); details: compound 1.0 µM; ATP 10 µM
[3] = test system: EEF2K (human), O00418 [H23R]; details: compound 1.0 µM; ATP 15 µM
Sequence of EEF2K (human), O00418 [H23R] (O00418 whole entry H23R, looked up): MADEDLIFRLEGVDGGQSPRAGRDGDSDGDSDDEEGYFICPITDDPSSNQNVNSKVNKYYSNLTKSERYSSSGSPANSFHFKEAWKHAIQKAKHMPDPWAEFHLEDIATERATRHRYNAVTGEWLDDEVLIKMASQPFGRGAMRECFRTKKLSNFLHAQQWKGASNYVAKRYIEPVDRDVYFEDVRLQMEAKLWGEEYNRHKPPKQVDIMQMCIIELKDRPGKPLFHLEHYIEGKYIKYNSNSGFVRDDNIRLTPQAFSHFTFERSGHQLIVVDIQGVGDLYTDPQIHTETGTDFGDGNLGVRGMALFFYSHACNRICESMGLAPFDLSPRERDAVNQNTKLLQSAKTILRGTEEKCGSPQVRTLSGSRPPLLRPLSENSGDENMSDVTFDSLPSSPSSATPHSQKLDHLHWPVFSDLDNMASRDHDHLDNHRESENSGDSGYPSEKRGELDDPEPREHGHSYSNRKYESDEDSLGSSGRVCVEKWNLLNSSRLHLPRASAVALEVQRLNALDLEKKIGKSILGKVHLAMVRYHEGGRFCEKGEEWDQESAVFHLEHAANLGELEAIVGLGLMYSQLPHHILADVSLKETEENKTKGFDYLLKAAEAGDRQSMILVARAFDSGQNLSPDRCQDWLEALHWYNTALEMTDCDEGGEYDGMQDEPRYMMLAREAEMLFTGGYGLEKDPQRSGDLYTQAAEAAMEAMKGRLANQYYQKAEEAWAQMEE

ITK (human) = ITK (human) (UniProt Q08881); details: compound 1.0 µM; ATP 200 µM
Sequence of ITK (human) (Q08881 whole entry, looked up): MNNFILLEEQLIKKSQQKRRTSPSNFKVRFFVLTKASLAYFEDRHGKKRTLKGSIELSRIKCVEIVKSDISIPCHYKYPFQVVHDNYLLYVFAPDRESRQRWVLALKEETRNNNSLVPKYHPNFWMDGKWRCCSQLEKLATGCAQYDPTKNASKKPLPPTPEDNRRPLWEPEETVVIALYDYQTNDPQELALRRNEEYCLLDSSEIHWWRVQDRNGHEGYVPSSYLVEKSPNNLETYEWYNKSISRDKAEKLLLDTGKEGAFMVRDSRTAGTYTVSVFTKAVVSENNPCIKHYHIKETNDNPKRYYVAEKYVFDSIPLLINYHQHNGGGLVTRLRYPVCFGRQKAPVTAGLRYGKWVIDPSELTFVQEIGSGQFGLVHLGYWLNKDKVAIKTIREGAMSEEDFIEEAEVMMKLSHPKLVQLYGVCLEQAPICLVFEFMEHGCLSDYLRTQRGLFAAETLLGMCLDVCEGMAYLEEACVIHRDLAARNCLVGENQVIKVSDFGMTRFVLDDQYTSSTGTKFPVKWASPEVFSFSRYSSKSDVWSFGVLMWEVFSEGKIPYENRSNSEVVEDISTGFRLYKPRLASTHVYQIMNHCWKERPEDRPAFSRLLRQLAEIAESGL

MAPK3 (human) = MAPK3 (human) (UniProt P27361); details: compound 1.0 µM; ATP 70 µM
Sequence of MAPK3 (human) (P27361 whole entry, looked up): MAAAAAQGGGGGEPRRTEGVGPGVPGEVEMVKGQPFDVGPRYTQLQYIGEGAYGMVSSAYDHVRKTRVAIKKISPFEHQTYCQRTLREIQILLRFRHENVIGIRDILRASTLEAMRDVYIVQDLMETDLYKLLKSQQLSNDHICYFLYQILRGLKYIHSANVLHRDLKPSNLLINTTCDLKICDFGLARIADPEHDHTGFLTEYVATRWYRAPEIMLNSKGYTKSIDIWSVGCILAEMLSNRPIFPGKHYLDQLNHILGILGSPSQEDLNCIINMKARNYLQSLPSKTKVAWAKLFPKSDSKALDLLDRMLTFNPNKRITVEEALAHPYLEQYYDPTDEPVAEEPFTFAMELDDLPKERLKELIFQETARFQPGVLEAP

[4] = test system: DDR2 (human), Q16832 [S642A]; details: compound 1.0 µM; ATP 200 µM
[5] = test system: BRSK2 (human), Q8IWQ3 [S251I]; details: compound 1.0 µM; ATP 70 µM
Sequence of BRSK2 (human), Q8IWQ3 [S251I] (Q8IWQ3 whole entry, looked up, stated change not applied): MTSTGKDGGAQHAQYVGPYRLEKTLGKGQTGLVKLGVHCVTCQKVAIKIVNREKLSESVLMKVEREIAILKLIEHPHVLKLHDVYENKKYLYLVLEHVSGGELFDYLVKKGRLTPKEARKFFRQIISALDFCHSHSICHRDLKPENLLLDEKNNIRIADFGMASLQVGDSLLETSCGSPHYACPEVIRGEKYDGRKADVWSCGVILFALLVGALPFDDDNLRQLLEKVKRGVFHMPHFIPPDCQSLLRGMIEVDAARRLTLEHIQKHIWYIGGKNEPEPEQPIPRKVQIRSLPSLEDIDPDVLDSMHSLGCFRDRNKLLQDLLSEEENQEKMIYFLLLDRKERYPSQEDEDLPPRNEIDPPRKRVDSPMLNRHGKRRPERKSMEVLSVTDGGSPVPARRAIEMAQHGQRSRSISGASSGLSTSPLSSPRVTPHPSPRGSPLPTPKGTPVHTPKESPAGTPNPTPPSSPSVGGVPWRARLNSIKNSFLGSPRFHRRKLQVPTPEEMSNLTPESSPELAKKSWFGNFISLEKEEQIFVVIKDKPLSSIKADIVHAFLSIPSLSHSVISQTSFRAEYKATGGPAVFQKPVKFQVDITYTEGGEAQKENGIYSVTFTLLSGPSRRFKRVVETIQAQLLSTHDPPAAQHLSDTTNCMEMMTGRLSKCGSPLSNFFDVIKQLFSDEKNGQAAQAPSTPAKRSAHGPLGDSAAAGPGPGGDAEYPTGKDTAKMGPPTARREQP

[6] = test system: ROS1 (human), P08922 [V2262A]; details: compound 1.0 µM; ATP 200 µM

Sequence of STK24 (human) (Q9Y6E0 whole entry, looked up): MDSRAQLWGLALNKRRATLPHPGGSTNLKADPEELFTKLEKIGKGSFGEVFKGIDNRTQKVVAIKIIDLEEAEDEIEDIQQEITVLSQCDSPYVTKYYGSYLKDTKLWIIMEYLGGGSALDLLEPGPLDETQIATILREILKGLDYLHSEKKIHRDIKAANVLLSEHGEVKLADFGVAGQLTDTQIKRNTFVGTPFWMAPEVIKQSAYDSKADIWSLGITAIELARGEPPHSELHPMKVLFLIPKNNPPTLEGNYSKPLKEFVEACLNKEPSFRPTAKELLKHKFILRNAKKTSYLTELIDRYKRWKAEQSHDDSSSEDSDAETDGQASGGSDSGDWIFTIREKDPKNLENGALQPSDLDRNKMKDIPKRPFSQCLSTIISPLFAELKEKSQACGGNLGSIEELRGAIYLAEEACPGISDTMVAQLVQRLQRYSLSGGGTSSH

residual activity (STK24 (human)): 102%
residual activity (HCK (human)): 33%
residual activity (NEK3 (human)): 104%
residual activity (MELK (human)): 38%
residual activity (TSSK1B (human)): 89%
residual activity (EPHA8 (human)): 108%
residual activity (FGFR4 (human)): 88%
residual activity [1]: 110%
residual activity (DAPK3 (human)): 87%
residual activity [2]: 100%
residual activity (PRKCQ (human)): 100%
residual activity (PLK3 (human)): 105%
residual activity (TBK1 (human)): 93%
residual activity (MKNK2 (human)): 33%
residual activity (CDC42BPB (human)): 94%
residual activity (RIPK2 (human)): 35%
residual activity (SRPK2 (human)): 104%
residual activity [3]: 93%
residual activity (ITK (human)): 18%
residual activity (MAPK3 (human)): 120%
residual activity [4]: 108%
residual activity [5]: 55%
residual activity [6]: 71%
Compound: CN(C)S(=O)(=O)Nc1ccc2ccc3ncc(-c4cnn(C)c4)cc3c(=O)c2c1
